Source: patent publication US20240036050A1, “Methods Of Detecting And Treating Hepatocellular Carcinoma” (The United States Government As Represented By The …, priority 2022, published 2024)

How the values were obtained:
Format in all cases: cell-based, human
[1] = system: CD63-GFP stable cell line (Huh-7.5-CD63-GFP); assay: CD63-GFP expression by fluorescence microscopy after autophagy modulation; details: increasing concentrations, 72 hours
Experimental: FIGS. 5A-5D: Show impaired autophagy promotes GPC3 accumulation in exosomes. CD63-GFP stable cell line was treated with increasing concentrations of Torin1 or Bafilomycin A1 for 72 hours.
Huh7.5 cells were cultured in DMEM high glucose with 10% fetal calf serum (FBS), L-glutamine, 1 mM sodium pyruvate, and 0.1 mM non-essential amino acids with 1% penicillin and streptomycin. Huh-7.5 cells were transfected with CD63-GFP plasmid, and multiple stable cell lines expressing (Huh-7.5-CD63-GFP) were selected using G-418 (Sigma-Aldrich, St. Louis, MO) selection. Human cholangiocarcinoma cell line (HuCCA) and human embryonic kidney cell line (HEK 293) were purchased from ATCC. These two cell lines were cultured according to the instruction provided by the supplier and maintained with regular medium change every three days. Torin 1 was purchased from EMD Millipore, Burlington, MA (475991-10MG), and Bafilomycin A1 were purchased from Cell Signaling Technology, Danvers, MA (54645S). Exosome-free fetal bovine serum was purchased from ThermoFisher Waltham, MA (A2720803). Monoclonal rabbit and mouse antibodies were used as primary antibodies in western blot as well as fluorescent microscopy imaging. Anti-CD81 monoclonal rabbit—MA5-13548—and anti-glypican3 monoclonal rabbit—MA5-16368 purchased from ThermoFisher. […]

Huh-7.5 cells [2] = assay: GPC3, Tsg101 and CD63 expression in HCC cells by fluorescence microscopy and Western blot; details: for GPC3 and Tsg101 expression: fluorescence microscopy
Experimental: Huh7.5 cells were cultured in DMEM high glucose with 10% fetal calf serum (FBS), L-glutamine, 1 mM sodium pyruvate, and 0.1 mM non-essential amino acids with 1% penicillin and streptomycin. Huh-7.5 cells were transfected with CD63-GFP plasmid, and multiple stable cell lines expressing (Huh-7.5-CD63-GFP) were selected using G-418 (Sigma-Aldrich, St. Louis, MO) selection. Human cholangiocarcinoma cell line (HuCCA) and human embryonic kidney cell line (HEK 293) were purchased from ATCC. These two cell lines were cultured according to the instruction provided by the supplier and maintained with regular medium change every three days. Torin 1 was purchased from EMD Millipore, Burlington, MA (475991-10MG), and Bafilomycin A1 were purchased from Cell Signaling Technology, Danvers, MA (54645S). Exosome-free fetal bovine serum was purchased from ThermoFisher Waltham, MA (A2720803). Monoclonal rabbit and mouse antibodies were used as primary antibodies in western blot as well as fluorescent microscopy imaging. Anti-CD81 monoclonal rabbit—MA5-13548—and anti-glypican3 monoclonal rabbit—MA5-16368 purchased from ThermoFisher. Anti-ARF6 monoclonal rabbit—5740S—and anti-Beta actin monoclonal rabbit—4970S purchased from Cell signaling, Anti-Tsg 101 monoclonal mouse sc-7964 purchased from Santa Cruz Biotechnology.
Western blotting was performed using a standard protocol. Cultured cells were harvested by the treatment of trypsin-EDTA (Life Technologies, Carlsbad, CA, USA) at different time points and were washed twice with PBS, then lysed in ice-cold RIPA buffer (Sigma-Aldrich, St. Louis, MO, USA) with a protease inhibitor (ThermoFisher Scientific, Waltham, MA, USA) and phosphatase inhibitor cocktail (Sigma-Aldrich, St. Louis, MO, USA). The total protein content of the extract was quantified using NanoDrop™ 2000 (ThermoFisher Scientific, Waltham, MA, USA). Cell lysates (approximately 20 μg of protein) were loaded by SDS-PAGE and transferred into a nitrocellulose membrane ([…] pore size, ThermoFisher Scientific, Waltham, MA, USA). […]

Huh-7.5 cells [3] = assay: Exosome and microvesicle production by immuno-magnetic bead affinity flow cytometry; details: 72 hours; for exosome production and GPC3 positive exosomes: CD63 beads
Experimental: Cells were cultured in exosome-depleted medium three days before the EV analysis. Briefly, cellular debris was removed from the culture supernatant by centrifugation at 2000 g for 30 minutes. Cleared supernatants were transferred to a new tube and mixed with 0.5 volumes of total EV isolation reagent from Invitrogen Carlsbad, CA (4478359). Tubes were incubated at 40 C overnight. The following day samples were centrifuged at 10,000 g for one hour at 40 C. Carefully removed supernatant, and EV pellet was resuspended in PBS and stored at […]. EVs concentration and size distribution were determined using NanoSight (Model NTA3300 with 532 nm green laser module, Malvern, Worcestershire, UK). Biotin anti-human CD63 antibody (Clone: H5C6) was purchased from BioLegend, San Diego, CA (353018). Biotin-conjugated Annexin A1 antibody was purchased from FabGennix Frisco, TX (ANXA1-BIOTIN). Biotin conjugated heparin was purchased from Sigma-Aldrich, Saint Louis, MO (B9806-10MG). Anti-glypican-3 (sc-390587 AF488), Anti-ARF6 (sc-7971 FITC), and Anti-CD81 (sc-166029 PE) were purchased from Santa Cruz Biotechnology, Santa Cruz, CA.
Streptavidin-coated magnetic beads were purchased from Invitrogen Carlsbad, CA (10608D). Beads were prewashed in phosphate buffer saline (PBS) and then incubated with biotinylated antibodies for one hour. Antibodies to CD63 or Annexin A1 were used at a proportion of 4 μg/5 mg of beads, or biotinylated heparin was used at 100 μg/1 mg of beads. […] Following this step, the EV-bead complex was incubated with fluorescence-labeled antibodies diluted in 100 μl PBS 1% BSA for one hour at room temperature. Beads were washed in PBS 1% BSA and then analyzed on a Becton-Dickinson flow cytometer (BD FACS Celesta) using BD FACSDiva Software 6.0, San Jose, CA. […]
The bead-based assay was used to verify the production of microvesicles and exosomes by autophagy modulation. […] The impact of autophagy modulation on the production of exosomes and microvesicles was quantified by flow analysis. […] The next day captured EVs were analyzed after staining with […] by flow cytometry. […]

[4] = system: autophagy-deficient HCC lines (Huh-7, Huh-7PX, Huh-7.5); assay: p62 degradation by Western blot after Torin1 treatment
Source text: (§1) FIGS. 9A-9H: Show Association between p62, autophagy status, and glypican 3 (GPC3) expression in HCC cell lines and normal hepatocytes. […] Scale bars=m. […] The results are expressed as the mean±standard deviation (SD). ***P<0.001. For each cell line 10 view fields were quantified. […] Scale bars=20 m. […] Scale bars=20 m.
PHHs or HCC cells were immobilized on glass slides and stained for p62 and glypican 3 by immunostaining. Exosomes and adherent cells were separated isolated from the cultures and lysates (20 μg of protein) prepared and examined for expression of p62, glypican 1, glypican 3 and exosome markers, CD9, TSG101 by SDS-PAGE electrophoresis and Western blotting. Cells were lysed in ice-cold lysis buffer (50 mM Tris HCl pH 8.0, 140 mM NaCl, 1.5 mM MgCl2, 0.5% NP-40 with complete protease inhibitor from Invitrogen) for 10 minutes in ice (about 1×10^6 cells/200 μL). Cells pelleted by low-speed centrifugation. The detergent compatible (DC) protein assay determined protein concentration. Samples were boiled for 10 minutes at 80° C. in the presence of 1× sodium dodecyl sulfate-polyacrylamide gel electrophoresis (SDS-PAGE)-loading buffer (250 mM Tris-HCl pH 6.8, 40% glycerol, 8% SDS, 0.57M β-mercaptoethanol, 0.12% bromophenol blue). Approximately 20 μg of protein was loaded onto 12% SDS-PAGE and transferred into a nitrocellulose membrane (LC2001 Thermo Scientific). […]

[5] = system: HCC cell lines (Huh-7, Huh-7PX, Huh-7.5, HLE); assay: DQ-Red BSA endocytosis assay with Torin1 stimulation; details: Torin1 200 nM
Source text: as §1
DQ™ Red BSA (D12051, Thermo Scientific) is a fluorogenic substrate that is endocytosed in cells and traffics through early endosomes to late endosomes that then fuse with acidic hydrolase containing lysosomes. This leads to the formation of endo-lysosomes that degrade DQ-Red BSA, de-quenching the fluorescence of the dye attached to this cargo, therefore, produces bright red spots in endo-lysosomes. Equal number of cells was seeded in 6-well plate. Then, untreated and Torin1-treated live cells were incubated with DQ-Red BSA for one hour. After washing cells with PBS, cells were fixed with 4% paraformaldehyde and counterstained with Hoechst 33342 (H3570, Thermo Scientific). Cells were examined using fluorescent microscopy.
Next, it was confirmed whether HCC cell lines and non-transformed primary hepatocytes could recapitulate impaired autophagy and increased GPC3 expression specific to HCC. A panel of 6 HCC cell lines was examined for p62 expression levels compared to primary human hepatocytes (PHH) using immunocytochemistry (FIG. 9A). […]

| Structure (SMILES) | CD63-GFP expression [1] | GPC3 and Tsg101 expression (Huh-7.5 cells [2]) | exosome production and GPC3 positive exosomes (Huh-7.5 cells [3]) | p62 levels [4] | DQ-BSA fluorescence signal ([5]; autophagy-deficient HCC lines (Huh-7, Huh-7PX, Huh-7.5)) | DQ-BSA fluorescence signal ([5]; autophagy-sufficient HLE cells) | GPC3 and CD63 levels by Western blot (Huh-7.5 cells [2]; two concentrations, 72 hours) | ARF6 positive microvesicles (Huh-7.5 cells [3]; Annexin A1 beads) |
| --- | --- | --- | --- | --- | --- | --- | --- | --- |
| CO/C1=C\C(C)=C\[C@@H](C)[C@@H](O)[C@@H](C)C/C(C)=C/C=C/[C@H](OC)[C@@H]([C@@H](C)[C@@H](O)[C@H](C)[C@@]2(O)C[C@@H](O)[C@H](C)[C@@H](C(C)C)O2)OC1=O [Bafilomycin A1] | induced its expression | accumulates GPC3 expression | increased exosome release and glypican-positive exosomes | – | – | – | – | – |
| CCC(=O)N1CCN(c2ccc(-n3c(=O)ccc4cnc5ccc(-c6cnc7ccccc7c6)cc5c43)cc2C(F)(F)F)CC1 [Torin1] | degrades CD63-GFP chimera protein | degrades GPC3 and Tsg101 | decreased total exosome production and glypican3 positive exosomes | decreased p62 levels | could only be induced following Torin1 treatment | increased | leads to GPC3 and CD63 degradation | promote ARF6 positive microvesicles |
